“And” between values parts separate entries of the source, which are not always exact repeats. Equal entries are not always repeated. Where two headings read alike, the source gives them in different places.
Experiments:
[1] = molecular target: T1, A. terreus ODC (Aspergillus terreus, UniProt A0ACN5CWH9); assay: Effect of inhibitors on activity of purified A. terreus ODC (residual activity, standard TNBS assay); type: biochemical; settings: for activity at 5 µg/mL / activity at 40 µg/mL / activity at 200 µg/mL / activity at 400 µg/mL: read-out: Relative Activity (%); for Relative Activity (%): enzyme preincubated 2 h, then L-ornithine, residual ODC activity; for IC50: 2 h preincubation
Description: The amino acid identity of the active sites implicated in the catalysis of A. terreus ODC has been scrutinized by the response to suicide inhibitors, namely propargylgycine (PPG), guanidine thiocyanate, hydroxylamine, iodoacetamide, DTNB, MBTH and curcumin. […] Consistently, curcumin has been extensively reported a strong inhibitor to the activity of tumor cells ODC, modulating the cellular polyamine metabolism. Elevated polyamine synthesis was recognized as profound compounds for survival and rapid proliferation of tumor cells, thus, targeting the ODC, rate limiting enzyme of polyamine synthesis, has been considered as powerful chemopreventive therapy for tumor cells. […] The enzyme irreversible inactivation by carbonyl reagents such as PPG, ensures the PLP dependence of these enzymes.
(§1) The activity of ODC was determined based on the amount of released putrescine using 2,4,6-tri-nitrobenzene sulfonic acid (TNBS) reagent. […] The reaction was stopped by 10% TCA then neutralized by adding adequate amount of 2N NaOH. 1-Pentanol (2 mL) was added was added to the reaction mixture which was subsequently vortexed for 1 min and centrifuged at 5000 rpm for 5 min. The upper layer was transferred into a new tube, combined with an equal volume of 0.1 M sodium borate (pH 8.0). After vigorously mixing, 500 µL of TNBS (10 mM) reagent was added, subjected to 1 min vortex before adding 2 mL DMSO, and centrifuging at 6000 rpm for 5 min and left to separate into two layers. The upper layer containing TNP-putrescine-TNP was collected by micropipette and the absorbance at λ = 420 nm will reveal putrescine concentration based on a parallel measurement of authentic putrescine at the same conditions. The enzyme protein concentration was measured by Folinʹs reagent, comparing to a known concentration of bovine serum albumin.
Active site prediction using amino acids analogues has been recognized as one of the mechanisms for interrogation of enzymatic identity. The influence of various inhibitors namely 5,5′-dithiobis-2-nitrobenzoic acid, 3-methyl-2-benzothiazolinone-hydrazone, guanidine thiocyanate, iodoacetamide, hydroxylamine, propargylglycine and curcumin on the activity of purified ODC was estimated. The enzyme was incubated with different inhibitor concentrations (5, 40, 200, 400 µg/mL) for 2 h at 30 °C, then amended with the substrate, and the residual activity of the enzyme were determined by the standard assay. The inhibitory kinetic parameters were measured according to El-Sayed et al.

[2] = molecular target: T1, A. terreus ODC; assay: Substrate specificity of purified ODC, diacetyl monoxime assay (citrulline / imino groups); type: biochemical; settings: for Diacetyl Monoxime Assay Activity: amino acid as substrate
Experimental: (§2) The specificity of purified A. terreus ODC towards various amino acids as substrates has been evaluated based on the putative enzymatic byproducts such as ammonia, citrulline and putrescine (see Materials and Methods). […] The putative deaminating, deiminating and decarboxylating activity of ODC for each substrate was assessed (Table 3).
(§3) The putative enzymatic byproducts such as ammonia, citrulline and putrescine were determined by Nessler’s reagent, diacetylmonoxime reagent and TNBS [42], respectively, under standard conditions. The kinetic parameters of A. terreus ODC; Michalis-Menten constant (Km), maximum velocity (Vmax), and turnover number (kcat) and catalytic efficiency towards the most hydrolysable amino acids were calculated.

[3] = molecular target: T1, A. terreus ODC; assay: Substrate specificity of purified ODC, Nessler's assay (ammonia); type: biochemical; settings: for Nessler's Assay Activity: amino acid as substrate; for Nessler's Assay Relative Activity: normalized to L-ornithine as standard substrate
Experimental: as §2, §3

[4] = molecular target: T1, A. terreus ODC; assay: Substrate specificity of purified ODC, TNBS assay (putrescine); type: biochemical; settings: released putrescine; for TNBS Assay Activity: amino acid as substrate; for TNBS Assay Relative Activity: normalized to L-ornithine
Experimental: as §2, §1, §3

[5] = molecular target: T1, A. terreus ODC; assay: Kinetic parameters of A. terreus ODC for substrates; settings: substrate of A. terreus ODC
Experimental: as §2, §3

[6] = molecular target: T1, A. terreus ODC; type: biochemical; settings: Nessler's, diacetylmonoxime and TNBS assays
Experimental: as §2, §3

[7] = tested on: N=C(N)NCCC[C@H](N)C(=O)O; assay: purified protein, by the assay type; settings: other: substrate of A. terreus ODC
Experimental: (§4) The putative enzymatic byproducts such as ammonia, citrulline and putrescine were determined by Nessler’s reagent [66], diacetylmonoxime reagent [36] and TNBS [42], respectively, under standard conditions. The kinetic parameters of A. terreus ODC; Michalis-Menten constant (Km), maximum velocity (Vmax), and turnover number (kcat) and catalytic efficiency towards the most hydrolysable amino acids were calculated.

[8] = tested on: NCCCC[C@H](N)C(=O)O; assay: purified protein, by the assay type; settings: other: substrate of A. terreus ODC
Experimental: as §4

Cn1c(=NN)sc2ccccc21 [3-Methyl-2-benzo-thiazolinone hydrazone, 3-methyl-2-benzothiazolinone-hydrazone]
activity at 5 µg/mL [1]: 41%
activity at 40 µg/mL [1]: 29%
activity at 200 µg/mL [1]: 12%
activity at 400 µg/mL [1]: 0%

O=C(O)c1cc(SSc2ccc([N+](=O)[O-])c(C(=O)O)c2)ccc1[N+](=O)[O-] [5-5′-Dithiobis-(2-nitro-benzoic acid), 5,5′-dithiobis-2-nitrobenzoic acid]
Relative Activity (%) ([1]; inhibitor 5 µg/mL): 39%
Relative Activity (%) ([1]; inhibitor 40 µg/mL): 27%
Relative Activity (%) ([1]; inhibitor 200 µg/mL): 14%
Relative Activity (%) ([1]; inhibitor 400 µg/mL): 5.8%

COc1cc(/C=C/C(=O)CC(=O)/C=C/c2ccc(O)c(OC)c2)ccc1O [Curcumin, diferuloylmethane]
IC50 ([1]; IC50, purified A. terreus ODC): ~109 nM and 109 nM
activity at 5 µg/mL [1]: 11%
activity at 40 µg/mL [1]: 0%
activity at 200 µg/mL [1]: 0%
activity at 400 µg/mL [1]: 0%

NCCCC(N)(C(=O)O)C(F)F (stereo not drawn) [DFMO, Difluoromethylornithine]
Relative Activity (%) ([1]; inhibitor 5 µg/mL): 8%
Relative Activity (%) ([1]; inhibitor 40 µg/mL): 0.1%
Relative Activity (%) ([1]; inhibitor 200 µg/mL): 0%
Relative Activity (%) ([1]; inhibitor 400 µg/mL): 0%
IC50 ([1]; purified A. terreus ODC): 0.02 µg/mL

N#CS.N=C(N)N [Guanidine thiocyanate, guanidine thiocyanate]
Relative Activity (%) ([1]; inhibitor 5 µg/mL): 90%
Relative Activity (%) ([1]; inhibitor 40 µg/mL): 60%
Relative Activity (%) ([1]; inhibitor 200 µg/mL): 30%

NO [Hydroxylamine, hydroxylamine]
Relative Activity (%) ([1]; inhibitor 5 µg/mL): 45%
Relative Activity (%) ([1]; inhibitor 40 µg/mL): 13%
Relative Activity (%) ([1]; inhibitor 200 µg/mL): 0%
Relative Activity (%) ([1]; inhibitor 400 µg/mL): 0%

NC(=O)CI [Iodoacetamide, iodoacetamide]
Relative Activity (%) ([1]; inhibitor 5 µg/mL): 37%
Relative Activity (%) ([1]; inhibitor 40 µg/mL): 19%
Relative Activity (%) ([1]; inhibitor 200 µg/mL): 10%
Relative Activity (%) ([1]; inhibitor 400 µg/mL): 0%

N=C(N)NCCC[C@H](N)C(=O)O [L-Arginine]
Diacetyl Monoxime Assay Relative Activity [2]: 194%
Diacetyl Monoxime Assay Activity ([2]; deiminating activity): 0.0068 µmol/mg/min
Nessler's Assay Activity [3]: 0.35 µmol/mg/min
Nessler's Assay Relative Activity [3]: 19%
TNBS Assay Activity [4]: 0.34 µmol/mg/min
TNBS Assay Relative Activity [4]: 16.2%

NCCCC[C@H](N)C(=O)O [L-Lysine]
Diacetyl Monoxime Assay Activity ([2]; deiminating activity): 0.0045 µmol/mg/min
Diacetyl Monoxime Assay Relative Activity ([2]; deiminating activity, normalized to L-ornithine): 128%
Nessler's Assay Activity [3]: 0 µmol/mg/min
Nessler's Assay Relative Activity [3]: 0%
TNBS Assay Activity [4]: 0.44 µmol/mg/min
TNBS Assay Relative Activity [4]: 20.9%

NCCC[C@H](N)C(=O)O [L-Ornithine]
Km [5]: 950 µM
Vmax [5]: 4.8 µmol/mg/min
Km ([5]; listed as L-ornithine): 900 µM
Diacetyl Monoxime Assay Activity ([2]; deiminating activity): 0.0035 µmol/mg/min
Nessler's Assay Activity [3]: 1.87 µmol/mg/min
TNBS Assay Activity [4]: 2.1 µmol/mg/min

C[C@H](N)C(=O)O [L-alanine]
affinity of purified ODC towards the amino acid as substrate [6]: no detectable affinity

NC(=O)C[C@H](N)C(=O)O [L-asparagine]
affinity of purified ODC towards the amino acid as substrate [6]: no detectable affinity

N[C@@H](CS)C(=O)O [L-cysteine]
affinity of purified ODC towards the amino acid as substrate [6]: no detectable affinity

NC(=O)CC[C@H](N)C(=O)O [L-glutamine]
affinity of purified ODC towards the amino acid as substrate [6]: no detectable affinity

NCC(=O)O [L-glycine]
affinity of purified ODC towards the amino acid as substrate [6]: no detectable affinity

CSCC[C@H](N)C(=O)O [L-methionine]
affinity of purified ODC towards the amino acid as substrate [6]: no detectable affinity

N[C@@H](Cc1c[nH]c2ccccc12)C(=O)O [L-tryptophan]
affinity of purified ODC towards the amino acid as substrate [6]: no detectable affinity

N[C@@H](Cc1ccc(O)cc1)C(=O)O [L-tyrosine]
affinity of purified ODC towards the amino acid as substrate [6]: no detectable affinity

CC(C)[C@H](N)C(=O)O [L-valine]
affinity of purified ODC towards the amino acid as substrate [6]: no detectable affinity

CC(=O)N[C@@H]1[C@@H](O)[C@H](O)[C@@H](CO)O[C@H]1O [N-acetylglucosamine]
affinity of purified ODC towards the amino acid as substrate [6]: no detectable affinity

C#CCC(N)C(=O)O (stereo not drawn) [Propargylgycine, propargylglycine]
Relative Activity (%) ([1]; inhibitor 5 µg/mL): 89%
Relative Activity (%) ([1]; inhibitor 40 µg/mL): 30%
Relative Activity (%) ([1]; inhibitor 200 µg/mL): 17%
Relative Activity (%) ([1]; inhibitor 400 µg/mL): 6%
IC50 ([1]; purified A. terreus ODC): 20.9 µg/mL

A. terreus ODC (Aspergillus terreus NIH2624)
Km [7]: 1400 µM
kcat/Km [7]: 0.0246 M⁻¹ s⁻¹
Km [8]: 1340 µM
kcat/Km [8]: 0.0283 M⁻¹ s⁻¹

From article PMC6696095, “Purification and Characterization of Ornithine Decarboxylase from Aspergillus terreus; Kinetics of Inhibition by Various Inhibitors” (Molecules, 2019)
